These results are taken from patent US10829520B2, “Beta-hairpin peptidomimetics” (POLYPHOR AG, priority 2015, dated 2020).

What all share (assay type): cell-based
The subject of data set [1] is human red blood cells (hRBC). Kind of data set: Hemolysis of human red blood cells. The settings on record: red cells of human, 1 h, 100 μg/mL. A digest of the protocol:
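hRBC washed 3× PBS; 20% v/v, ~0.9×10^9 cells/mL final. Peptide 100 μg/mL, 1 h, 37° C., 300 rpm. Spin, supernatant diluted 8×, OD540. 0% = PBS + 0.001% acetic acid; 100% = 2.5% Triton X-100. % hemolysis = OD540 peptide/OD540 full lysis × 100.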

The test system of data set [2] is Escherichia coli 926415. The settings on record: 926415.
The test system of data set [3] is Acinetobacter baumannii DSM 30008. The settings on record: DSM 30008. In outline:
(§1)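 CLSI broth microdilution; MH-II (cation-adjusted) + 0.002% P-80; ~10^6 CFU/mL inoculum; peptide two-fold serial dilutions; 18-20 h, 35° C; MIC = no visible growth, μg/mL.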

The test system of data set [4] is Escherichia coli ATCC 25922. The settings on record: ATCC 25922. A digest of the protocol:
as §1

Data set [5] concerns Acinetobacter baumannii 872842. The settings on record: 872842.
For data set [6], the system named is Klebsiella pneumoniae 968733. The settings on record: 968733.
The test system of data set [7] is Pseudomonas aeruginosa ATCC 27853. The settings on record: ATCC 27853. A digest of the protocol:
as §1

The subject of data set [8] is Klebsiella pneumoniae SSI #3010. The settings on record: SSI #3010. A digest of the protocol: as §1

Where a SMILES comes first, the peptide text is derived from it. Bridges are numbered along the chain shown (N, C = ends). [ ]: non-standard residue; d: D form. The star is where a group is joined. NαAmidinoTrp = N=C(N)N[C@@H](Cc1c[nH]c2ccccc12)C(=O)*; X2 = CN(C)C(=N[C@@H](Cc1c[nH]c2ccccc12)C(=O)*)N(C)C; Ala(cPent) = N[C@@H](CC1CCCC1)C(=O)O; dHyp = O=C(O)[C@H]1C[C@H](O)CN1; Dab = NCC[C@H](N)C(=O)O

Consider `CC(C)C[C@@H]1NC(=O)[C@@H](CC(C)C)NC(=O)[C@H](CCN)NC(=O)[C@@H](NC(=O)[C@H](CCN)NC(=O)[C@@H](NC(=O)[C@H](CCN)NC(=O)[C@H](CCN)NC(=O)[C@@H]2CSSC[C@H](NC(=O)[C@@H](N)Cc3c[nH]c4ccccc34)C(=O)N[C@@H](C(C)C)C(=O)N[C@@H](C)C(=O)N[C@@H](CO)C(=O)NCC(=O)N3CCC[C@H]3C(=O)N[C@@H](CC(C)C)C(=O)N[C@@H](CO)C(=O)N[C@@H](Cc3ccc(O)cc3)C(=O)N2)[C@@H](C)O)CCNC(=O)[C@H]([C@@H](C)O)NC(=O)[C@H](CCN)NC(=O)[C@H](CCN)NC1=O` [Ex. 128] (H-WCVASGPLSYC[Dab][Dab]T[Dab][Dab][Dab][dL]L[Dab][Dab]T; disulfide 2-11; lactam 16-C), for which the “Hemolysis at 100 μg/mL” value in data set [1] was determined as 1%. In addition, the “Escherichia coli 926415 MIC” value in data set [2] was determined as 0.5 µg/mL. Further, the “Acinetobacter baumannii DSM 30008 MIC” value in data set [3] worked out at 0.125 µg/mL. For the same compound, the “Escherichia coli ATCC 25922 MIC” value in data set [4] was 0.125 µg/mL. Besides, the “Acinetobacter baumannii 872842 MIC” value in data set [5] amounted to 0.25 µg/mL. Moreover, the “Klebsiella pneumoniae 968733 MIC” value in data set [6] is 4 µg/mL. Also, the “Pseudomonas aeruginosa ATCC 27853 MIC” value in data set [7] was determined as 0.5 µg/mL. The “Klebsiella pneumoniae SSI #3010 MIC” value in data set [8] was 0.125 µg/mL.
Turning to `CC(C)C[C@@H]1NC(=O)[C@H](C)NC(=O)[C@H]2C[C@H](O)CN2C(=O)[C@H](CO)NC(=O)[C@H](C)NC(=O)[C@H](C(C)C)NC(=O)[C@@H](NC(=O)[C@@H](N)Cc2c[nH]c3ccccc23)CSSC[C@@H](C(=O)N[C@@H](CCN)C(=O)N[C@@H](CCN)C(=O)N[C@H](C(=O)N[C@@H](CCN)C(=O)N[C@H]2CCNC(=O)[C@H]([C@@H](C)O)NC(=O)[C@H](CCN)NC(=O)[C@H](CCN)NC(=O)[C@H](CC(C)C)NC(=O)[C@@H](CC(C)C)NC(=O)[C@H](CCN)NC2=O)[C@@H](C)O)NC(=O)[C@H](Cc2ccc(O)cc2)NC(=O)[C@H](CO)NC1=O` [Ex. 129] (H-WCVAS[dHyp]ALSYC[Dab][Dab]T[Dab][Dab][Dab][dL]L[Dab][Dab]T; disulfide 2-11; lactam 16-C), in data set [1], the “Hemolysis at 100 μg/mL” value was under 1%. Besides, in data set [2], the “Escherichia coli 926415 MIC” value worked out at 0.25 µg/mL. Besides, the “Acinetobacter baumannii DSM 30008 MIC” value in data set [3] turned out to be 0.125 µg/mL. Besides, the “Escherichia coli ATCC 25922 MIC” value in data set [4] worked out at 0.0625 µg/mL. In data set [5], the “Acinetobacter baumannii 872842 MIC” value came to 0.0625 µg/mL. In data set [6], the “Klebsiella pneumoniae 968733 MIC” value came out at 2 µg/mL. Moreover, in data set [7], the “Pseudomonas aeruginosa ATCC 27853 MIC” value amounted to 0.125 µg/mL. The “Klebsiella pneumoniae SSI #3010 MIC” value in data set [8] was determined as 0.125 µg/mL.
Consider `CC(C)C[C@@H]1NC(=O)[C@@H](CC(C)C)NC(=O)[C@H](CCN)NC(=O)[C@@H](NC(=O)[C@H](CCN)NC(=O)[C@@H](NC(=O)[C@H](CCN)NC(=O)CNC(=O)[C@@H]2CSSC[C@H](NC(=O)[C@@H](N)Cc3c[nH]c4ccccc34)C(=O)N[C@@H](C(C)C)C(=O)N[C@@H](C)C(=O)N[C@@H](CO)C(=O)N[C@H](CO)C(=O)N3CCC[C@H]3C(=O)N[C@@H](CC(C)C)C(=O)N[C@@H](CO)C(=O)N[C@@H](Cc3ccc(O)cc3)C(=O)N2)[C@@H](C)O)CCNC(=O)[C@H]([C@@H](C)O)NC(=O)[C@H](CCN)NC(=O)[C@H](CCN)NC1=O` [Ex. 130] (H-WCVAS[dS]PLSYCG[Dab]T[Dab][Dab][Dab][dL]L[Dab][Dab]T; disulfide 2-11; lactam 16-C), for which the “Hemolysis at 100 μg/mL” value in data set [1] is on record as under 1%. The “Escherichia coli 926415 MIC” value in data set [2] amounted to 0.25 µg/mL. Also, the “Acinetobacter baumannii DSM 30008 MIC” value in data set [3] was 0.0625 µg/mL. In addition, the “Escherichia coli ATCC 25922 MIC” value in data set [4] worked out at 0.0625 µg/mL. The “Acinetobacter baumannii 872842 MIC” value in data set [5] is 0.0625 µg/mL. Further, the “Klebsiella pneumoniae 968733 MIC” value in data set [6] came to 0.125 µg/mL. In data set [7], the “Pseudomonas aeruginosa ATCC 27853 MIC” value worked out at 0.25 µg/mL. The “Klebsiella pneumoniae SSI #3010 MIC” value in data set [8] amounted to 0.0625 µg/mL.
Take `CC(C)C[C@@H]1NC(=O)[C@@H](CC(C)C)NC(=O)[C@H](CCN)NC(=O)[C@@H](NC(=O)[C@H](CCN)NC(=O)[C@@H](NC(=O)[C@H](CCN)NC(=O)CNC(=O)[C@@H]2CSSC[C@H](NC(=O)[C@@H](N)Cc3c[nH]c4ccccc34)C(=O)N[C@@H](C(C)C)C(=O)N[C@@H](C)C(=O)N[C@@H](CO)C(=O)N3CCC[C@@H]3C(=O)N3CCC[C@H]3C(=O)N[C@@H](CC(C)C)C(=O)N[C@@H](CO)C(=O)N[C@@H](Cc3ccc(O)cc3)C(=O)N2)[C@@H](C)O)CCNC(=O)[C@H]([C@@H](C)O)NC(=O)[C@H](CCN)NC(=O)[C@H](CCN)NC1=O` [Ex. 131] (H-WCVAS[dP]PLSYCG[Dab]T[Dab][Dab][Dab][dL]L[Dab][Dab]T; disulfide 2-11; lactam 16-C): the “Hemolysis at 100 μg/mL” value in data set [1] is under 1%. In data set [2], the “Escherichia coli 926415 MIC” value was determined as 0.25 µg/mL. In addition, the “Acinetobacter baumannii DSM 30008 MIC” value in data set [3] worked out at 0.125 µg/mL. Besides, in data set [4], the “Escherichia coli ATCC 25922 MIC” value amounted to 0.0625 µg/mL. In data set [5], the “Acinetobacter baumannii 872842 MIC” value was found to be 0.125 µg/mL. Also, the “Klebsiella pneumoniae 968733 MIC” value in data set [6] was 0.25 µg/mL. Moreover, the “Pseudomonas aeruginosa ATCC 27853 MIC” value in data set [7] amounted to 0.5 µg/mL. Besides, the “Klebsiella pneumoniae SSI #3010 MIC” value in data set [8] turned out to be 0.125 µg/mL.
With `CC(C)C[C@@H]1NC(=O)[C@@H](Cc2ccccc2)NC(=O)[C@H](CCN)NC(=O)[C@@H](NC(=O)[C@H](CCN)NC(=O)[C@@H](NC(=O)[C@H](CCN)NC(=O)CNC(=O)[C@@H]2CSSC[C@H](NC(=O)[C@@H](N)Cc3c[nH]c4ccccc34)C(=O)N[C@@H](C(C)C)C(=O)N[C@@H](C)C(=O)N[C@@H](CO)C(=O)N3CCC[C@@H]3C(=O)N3CCC[C@H]3C(=O)N[C@@H](CC3CCCC3)C(=O)N[C@@H](CO)C(=O)N[C@@H](Cc3ccc(O)cc3)C(=O)N2)[C@@H](C)O)CCNC(=O)[C@H]([C@@H](C)O)NC(=O)[C@H](CCN)NC(=O)[C@H](CCN)NC1=O` [Ex. 132] (H-WCVAS[dP]P[Ala(cPent)]SYCG[Dab]T[Dab][Dab][Dab][dF]L[Dab][Dab]T; disulfide 2-11; lactam 16-C), the “Hemolysis at 100 μg/mL” value in data set [1] was under 1%. Besides, in data set [2], the “Escherichia coli 926415 MIC” value was 0.1255 µg/mL. The “Acinetobacter baumannii DSM 30008 MIC” value in data set [3] was 0.0625 µg/mL. In data set [4], the “Escherichia coli ATCC 25922 MIC” value is 0.0625 µg/mL. Besides, the “Acinetobacter baumannii 872842 MIC” value in data set [5] came to 0.0625 µg/mL. Further, the “Klebsiella pneumoniae 968733 MIC” value in data set [6] was determined as 0.125 µg/mL. Moreover, in data set [7], the “Pseudomonas aeruginosa ATCC 27853 MIC” value turned out to be 0.25 µg/mL. Besides, the “Klebsiella pneumoniae SSI #3010 MIC” value in data set [8] is 0.125 µg/mL.
As for `CC(C)C[C@@H]1NC(=O)[C@@H](CC(C)C)NC(=O)[C@H](CCN)NC(=O)[C@@H](NC(=O)[C@H](CCN)NC(=O)[C@@H](NC(=O)[C@H](CCN)NC(=O)CNC(=O)[C@@H]2CSSC[C@H](NC(=O)[C@H](Cc3c[nH]c4ccccc34)N=C(N(C)C)N(C)C)C(=O)N[C@@H](C(C)C)C(=O)N[C@@H](C)C(=O)N[C@@H](CO)C(=O)N3CCC[C@@H]3C(=O)N3CCC[C@H]3C(=O)N[C@@H](CC(C)C)C(=O)N[C@@H](CO)C(=O)N[C@@H](Cc3ccc(O)cc3)C(=O)N2)[C@@H](C)O)CCNC(=O)[C@H]([C@@H](C)O)NC(=O)[C@H](CCN)NC(=O)[C@H](CCN)NC1=O` [Ex. 133] (X2-CVAS[dP]PLSYCG[Dab]T[Dab][Dab][Dab][dL]L[Dab][Dab]T; disulfide 1-10; lactam 15-C), the “Hemolysis at 100 μg/mL” value in data set [1] is on record as under 1%. Also, in data set [2], the “Escherichia coli 926415 MIC” value is 4 µg/mL. In addition, the “Acinetobacter baumannii DSM 30008 MIC” value in data set [3] was determined as 1 µg/mL. Also, the “Escherichia coli ATCC 25922 MIC” value in data set [4] was determined as 0.25 µg/mL. Further, the “Acinetobacter baumannii 872842 MIC” value in data set [5] was determined as 4 µg/mL. Besides, the “Klebsiella pneumoniae 968733 MIC” value in data set [6] was determined as 8 µg/mL. In addition, the “Pseudomonas aeruginosa ATCC 27853 MIC” value in data set [7] was determined as 1 µg/mL. In addition, in data set [8], the “Klebsiella pneumoniae SSI #3010 MIC” value was 1 µg/mL.
With `CC(C)C[C@@H]1NC(=O)[C@@H](CC(C)C)NC(=O)[C@H](CCN)NC(=O)[C@@H](NC(=O)[C@H](CCN)NC(=O)[C@@H](NC(=O)[C@H](CCN)NC(=O)[C@@H](C)NC(=O)[C@@H]2CSSC[C@H](NC(=O)[C@H](Cc3c[nH]c4ccccc34)NC(=N)N)C(=O)N[C@@H](C(C)C)C(=O)N[C@@H](C)C(=O)N[C@@H](CO)C(=O)N3CCC[C@@H]3C(=O)N3CCC[C@H]3C(=O)N[C@@H](CC(C)C)C(=O)N[C@@H](CO)C(=O)N[C@@H](Cc3ccc(O)cc3)C(=O)N2)[C@@H](C)O)CCNC(=O)[C@H]([C@@H](C)O)NC(=O)[C@H](CCN)NC(=O)[C@H](CCN)NC1=O` [Ex. 135] (NαAmidinoTrp-CVAS[dP]PLSYC[dA][Dab]T[Dab][Dab][Dab][dL]L[Dab][Dab]T; disulfide 1-10; lactam 15-C), the “Hemolysis at 100 μg/mL” value in data set [1] stood at 1%. The “Escherichia coli 926415 MIC” value in data set [2] turned out to be 1 µg/mL. Further, the “Acinetobacter baumannii DSM 30008 MIC” value in data set [3] was determined as 0.25 µg/mL. For the same compound, the “Escherichia coli ATCC 25922 MIC” value in data set [4] stood at 0.125 µg/mL. Moreover, the “Acinetobacter baumannii 872842 MIC” value in data set [5] turned out to be 0.5 µg/mL. Further, the “Klebsiella pneumoniae 968733 MIC” value in data set [6] was 8 µg/mL. Further, the “Pseudomonas aeruginosa ATCC 27853 MIC” value in data set [7] is 0.5 µg/mL. Further, in data set [8], the “Klebsiella pneumoniae SSI #3010 MIC” value was determined as 0.5 µg/mL.
